Measurements taken from patent publication US20240148821A1, “PHARMACEUTICAL USE OF CYCLIC PEPTIDE COMPOUND” (CHUGAI SEIYAKU KABUSHIKI KAISHA, priority 2021, published 2024).
Numbered stars: 1 amine (or outer) side, 2 acyl side, 3 side chain; on linkers, the order of the positions; unused ones are H or OH. Bridge positions count the residues as written; N and C are the ends. Square brackets hold non-standard residues; d marks the D form. Peptide text beside a SMILES is read from it. * marks the point of attachment. hPhe(3-Cl-4-CF3) = N[C@@H](CCc1ccc(C(F)(F)F)c(Cl)c1)C(=O)O; hPhe(3-F,4-CF3) = N[C@@H](CCc1ccc(C(F)(F)F)c(F)c1)C(=O)O; NEtPhe(4-CF3) = CCN[C@@H](Cc1ccc(C(F)(F)F)cc1)C(=O)O; NMePhe(4-CF3) = CN[C@@H](Cc1ccc(C(F)(F)F)cc1)C(=O)O; X6 = O=C([C@H](CCc1ccc2c(c1)OC(F)(F)O2)N[*:1])[*:2]; hPhe(4-CF3) = N[C@@H](CCc1ccc(C(F)(F)F)cc1)C(=O)O; NMePhe(3,4-F2) = CN[C@@H](Cc1ccc(F)c(F)c1)C(=O)O; NMePhe(4-Cl) = CN[C@@H](Cc1ccc(Cl)cc1)C(=O)O; NMePhe(4-Me) = CN[C@@H](Cc1ccc(C)cc1)C(=O)O; NMePhe(2-Cl) = CN[C@@H](Cc1ccccc1Cl)C(=O)O; NMedβ3hAla = C[C@H](CC(=O)[*:2])N(C)[*:1]; Phe(3-Cl) = N[C@@H](Cc1cccc(Cl)c1)C(=O)O; NMeGly(cPent) = CN[C@H](C(=O)O)C1CCCC1; NMeGly(cBu) = CN[C@H](C(=O)O)C1CCC1; NMeCha = CN[C@@H](CC1CCCCC1)C(=O)O; Hyp = O=C(O)[C@@H]1C[C@@H](O)CN1; NMeChg = CN[C@H](C(=O)O)C1CCCCC1; NMeF = CN[C@@H](Cc1ccccc1)C(=O)O; X58 = CNCCOCCN(CC(=O)[*:2])[*:1]; NMeD = CN[C@@H](CC(=O)O)C(=O)O; NMeL = CN[C@@H](CC(C)C)C(=O)O; Tle = CC(C)(C)[C@H](N)C(=O)O; NMeV = CN[C@H](C(=O)O)C(C)C; d(β3hA) = C[C@@H](N)CC(=O)O; NMeS = CN[C@@H](CO)C(=O)O; Morpholide = C1CN(*)CCO1; NMeA = CN[C@@H](C)C(=O)O; Piperidide = C1CCN(*)CC1; Pyrrolidide = C1CCN(*)C1; dNMeA = CN[C@H](C)C(=O)O; Ac5c = NC1(C(=O)O)CCCC1; Aze = O=C(O)[C@@H]1CCN1; Ac4c = NC1(C(=O)O)CCC1; Isopentyl = CC(C)CC*; Ethyl(2-OH) = OCC*; Sar = CNCC(=O)O; Propyl = CCC*

target: protein-protein interaction between Kras and SOS1 (biotin-tagged human Kras loaded with GDP, His-tagged human SOS1) (Homo sapiens (Human), UniProt P01116, G12D); test: Protein-protein interaction inhibition between Kras and SOS1 (KrasG12D-SOS PPI) using AlphaScreen; format: biochemical; details: AlphaScreen; biotin-tagged human Kras loaded with GDP, His-tagged human SOS1; read-out: KRAS G12D-SOS PPI IC50;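 note: kras produced in E. coli, Ni-coupled donor beads and streptavidin acceptor beads, excitation 680 nm with emission detected at 520–620 nm via singlet oxygen transfer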

| Compound | IC50 |
| --- | --- |
| CC[C@H](C)[C@@H]1NC(=O)[C@H](C)N(C)C(=O)C[C@@H](C(=O)N2CCOCC2)N(C)C(=O)[C@H](C(C)C)N(C)C(=O)C2(CCCC2)NC(=O)[C@H](Cc2ccccc2Cl)N(C)C(=O)[C@H](CCc2ccc(C(F)(F)F)c(Cl)c2)NC(=O)CN(C)C(=O)[C@H](CC2CCCCC2)N(C)C(=O)CN(C)C(=O)CN(C)C1=O [Compound 2020] ([NMeA]I[Sar][Sar][NMeCha][Sar][hPhe(3-Cl-4-CF3)][NMePhe(2-Cl)][Ac5c][NMeV][NMeD]-Morpholide; lactam N-11) | 270 nM |
| CC[C@H](C)[C@@H]1NC(=O)[C@H](CC(C)C)N(C)C(=O)C[C@@H](C(=O)N2CCCCC2)N(C)C(=O)[C@H](C(C)C)N(C)C(=O)C2(CCCC2)NC(=O)[C@@H]2CCCN2C(=O)[C@H](CCc2ccc(C(F)(F)F)c(Cl)c2)NC(=O)CN(C)C(=O)[C@H](C2CCC2)N(C)C(=O)[C@@H]2CCN2C(=O)[C@H](C)N(C)C1=O [Compound 446] ([NMeL]I[NMeA][Aze][NMeGly(cBu)][Sar][hPhe(3-Cl-4-CF3)]P[Ac5c][NMeV][NMeD]-Piperidide; lactam N-11) | 1.8 nM |
| CC[C@H](C)[C@@H]1NC(=O)[C@H](C)N(C)C(=O)C[C@@H](C)NC(=O)[C@H](CC(C)C)N(C)C(=O)[C@H](Cc2ccccc2)N(C)C(=O)[C@@H]2C[C@@H](O)CN2C(=O)[C@H](CCc2ccc(C(F)(F)F)cc2)NC(=O)CN(C)C(=O)[C@H](Cc2ccc(Cl)cc2)N(C)C(=O)CN(C)C(=O)CN(C)C1=O [Compound 1375] (cyclo([Hyp][NMeF][NMeL][d(β3hA)][NMeA]I[Sar][Sar][NMePhe(4-Cl)][Sar][hPhe(4-CF3)])) | 9.3 nM |
| CC[C@H](C)[C@@H]1NC(=O)[C@H](C)N(C)C(=O)C[C@@H](C)NC(=O)[C@H](C(C)C)N(C)C(=O)[C@H](Cc2ccccc2)N(C)C(=O)[C@H](CC(C)C)N(C)C(=O)[C@H](CCc2ccc(C(F)(F)F)cc2)NC(=O)CN(C)C(=O)[C@H](Cc2ccc(Cl)cc2)N(C)C(=O)CN(C)C(=O)CN(C)C1=O [Compound 51] (cyclo(I[Sar][Sar][NMePhe(4-Cl)][Sar][hPhe(4-CF3)][NMeL][NMeF][NMeV][d(β3hA)][NMeA])) | 90 nM |
| CC[C@H](C)[C@@H]1NC(=O)[C@H](CC2CCCCC2)N(C)C(=O)C[C@@H](C)NC(=O)[C@H](CC(C)C)N(C)C(=O)C2(CCCC2)NC(=O)[C@H](CC(C)C)N(C)C(=O)[C@H](CCc2ccc(C(F)(F)F)cc2)NC(=O)CN(C)C(=O)[C@H](Cc2ccc(Cl)cc2)N(C)C(=O)CN(C)C(=O)CN(C)C1=O [Compound 583] (cyclo([Ac5c][NMeL][d(β3hA)][NMeCha]I[Sar][Sar][NMePhe(4-Cl)][Sar][hPhe(4-CF3)][NMeL])) | 370 nM |
| CC[C@H](C)[C@@H]1NC(=O)[C@H](CC(C)C)N(C)C(=O)C[C@@H](C(=O)N2CCCCC2)N(C)C(=O)[C@H](C2CCCCC2)N(C)C(=O)C2(CCCC2)NC(=O)[C@@H]2C[C@@H](OCCO)CN2C(=O)[C@H](CCc2ccc(C(F)(F)F)c(Cl)c2)NC(=O)CN(C)C(=O)[C@H](CC2CCCCC2)N(C)C(=O)CN(C)C(=O)CN(C)C1=O [Compound 2122, (3S,9S,18S,21S,25S,28S,34S,36R)-3-[2-[3-chloro-4-(trifluoromethyl)phenyl]ethyl]-28-cyclohexyl-9-(cyclohexylmethyl)-36-(2-hydroxyethoxy)-21-isobutyl-7,10,13,16,22,26,29-heptamethyl-18-[(1S)-1-methylpropyl]-25-(piperidine-1-carbonyl)spiro[1,4,7,10,13,16,19,22,26,29,32-undecazabicyclo[32.3.0]heptatriacontane-31,1′-cyclopentane]-2,5,8,11,14,17,20,23,27,30,33-undecone] ([NMeL]I[Sar][Sar][NMeCha][Sar][hPhe(3-Cl-4-CF3)][Hyp](Ethyl(2-OH))[Ac5c][NMeChg][NMeD]-Piperidide; lactam N-11) | 0.46 nM |
| CCO[C@@H]1C[C@H]2C(=O)NC3(CCCC3)C(=O)N(C)[C@@H](C3CCCC3)C(=O)N(C)[C@H](C)CC(=O)N(C)[C@@H](CC(C)C)C(=O)N[C@@H]([C@@H](C)CC)C(=O)N[C@@H](C)C(=O)N3CC[C@H]3C(=O)N(CC)[C@@H](Cc3ccc(C(F)(F)F)cc3)C(=O)N(C)CC(=O)N[C@@H](CCc3ccc(C(F)(F)F)c(Cl)c3)C(=O)N2C1 [Compound 401] (cyclo(A[Aze][NEtPhe(4-CF3)][Sar][hPhe(3-Cl-4-CF3)][Hyp](Et)[Ac5c][NMeGly(cPent)][NMedβ3hAla][NMeL]I)) | 3.6 nM |
| CC[C@H](C)[C@@H]1NC(=O)[C@H](C)N(C)C(=O)C[C@@H](C)NC(=O)[C@H](C2CCCC2)N(C)C(=O)C2(CCCC2)NC(=O)[C@@H]2CCCN2C(=O)[C@H](CCc2ccc(C(F)(F)F)c(Cl)c2)NC(=O)[C@@H](C)N(C)C(=O)[C@H](Cc2ccc(F)c(F)c2)N(C)C(=O)[C@@H]2CCN2C(=O)[C@H](C)N(C)C1=O [Compound 310] (cyclo([Ac5c][NMeGly(cPent)][d(β3hA)][NMeA]I[NMeA][Aze][NMePhe(3,4-F2)][dNMeA][hPhe(3-Cl-4-CF3)]P)) | 96 nM |
| CC[C@H](C)[C@@H]1NC(=O)[C@H](C)N(C)C(=O)C[C@@H](C)NC(=O)[C@H](C(C)C)N(C)C(=O)C2(CCCC2)NC(=O)[C@@H]2CCCN2C(=O)[C@H](CCc2ccc(C(F)(F)F)c(Cl)c2)NC(=O)[C@H]2CCCN2C(=O)[C@H](CC2CCCCC2)N(C)C(=O)CN(C)C(=O)CN(C)C1=O [Compound 412] (cyclo([Ac5c][NMeV][d(β3hA)][NMeA]I[Sar][Sar][NMeCha][dP][hPhe(3-Cl-4-CF3)]P)) | 120 nM |
| CC[C@H](C)[C@@H]1NC(=O)[C@H](C)N(C)C(=O)C[C@@H](C)NC(=O)[C@H](C2CCCC2)N(C)C(=O)C2(CCC2)NC(=O)[C@@H]2CCCN2C(=O)[C@H](CCc2ccc(C(F)(F)F)c(Cl)c2)NC(=O)CN(C)C(=O)[C@H](Cc2ccc(C(F)(F)F)cc2)N(C)C(=O)CN(C)C(=O)CN(C)C1=O [Compound 1486] (cyclo([Ac4c][NMeGly(cPent)][d(β3hA)][NMeA]I[Sar][Sar][NMePhe(4-CF3)][Sar][hPhe(3-Cl-4-CF3)]P)) | 0.5 nM |
| CC[C@H](C)[C@@H]1NC(=O)[C@H](C)N(C)C(=O)C[C@@H](C)NC(=O)[C@H](CC(C)C)N(C)C(=O)[C@H](Cc2ccccc2)N(C)C(=O)[C@H](C(C)(C)C)NC(=O)[C@H](CCc2ccc(C(F)(F)F)cc2)NC(=O)CN(C)C(=O)[C@H](Cc2ccc(Cl)cc2)N(C)C(=O)CN(C)C(=O)CN(C)C1=O [Compound 764] (cyclo(I[Sar][Sar][NMePhe(4-Cl)][Sar][hPhe(4-CF3)][Tle][NMeF][NMeL][d(β3hA)][NMeA])) | 83 nM |
| CC[C@H](C)[C@@H]1NC(=O)[C@H](CC(C)C)N(C)C(=O)C[C@@H](C(=O)N2CCCCC2)N(C)C(=O)[C@H](C2CCCC2)N(C)C(=O)C2(CCCC2)NC(=O)[C@@H]2CCCN2C(=O)[C@H](CCc2ccc3c(c2)OC(F)(F)O3)NC(=O)CN(C)C(=O)[C@H](CC2CCCCC2)N(C)C(=O)[C@@H]2CCN2C(=O)[C@H](C)N(C)C1=O [Compound 2074] ([NMeL]I[NMeA][Aze][NMeCha][Sar][X6]P[Ac5c][NMeGly(cPent)][NMeD]-Piperidide; lactam N-11 (inferred); C-terminus assumed) | 2.7 nM |
| CCCOC[C@H]1C(=O)N(C)CC(=O)N[C@@H](CCc2ccc(C(F)(F)F)c(F)c2)C(=O)N2CCC[C@H]2C(=O)NC2(CCCC2)C(=O)N(C)[C@@H](C2CCCC2)C(=O)N(C)[C@H](C(=O)N2CCCCC2)CC(=O)N(C)[C@@H](CC(C)C)C(=O)N[C@@H]([C@@H](C)CC)C(=O)N(C)[C@@H](C)C(=O)N2CC[C@H]2C(=O)N1C [Compound 1029] ([NMeL]I[NMeA][Aze][NMeS](Propyl)[Sar][hPhe(3-F,4-CF3)]P[Ac5c][NMeGly(cPent)][NMeD]-Piperidide; lactam N-11) | 1.4 nM |
| CCO[C@@H]1C[C@H]2C(=O)N(C)[C@@H](COCCC(C)C)C(=O)N(C)[C@@H](CC(C)C)C(=O)N[C@H](C(=O)N3CCCC3)CC(=O)N(C)[C@@H](C)C(=O)N[C@@H]([C@@H](C)CC)C(=O)N(C)CC(=O)N(C)CC(=O)N(C)[C@@H](Cc3ccc(Cl)cc3)C(=O)N(C)CC(=O)N[C@@H](Cc3cccc(Cl)c3)C(=O)N2C1 [Compound 925] ([NMeA]I[Sar][Sar][NMePhe(4-Cl)][Sar][Phe(3-Cl)][Hyp](Et)[NMeS](Isopentyl)[NMeL]D-Pyrrolidide; lactam N-11) | 360 nM |
| CC[C@H](C)[C@@H]1NC(=O)[C@H](CC(C)C)N(C)C(=O)C[C@@H](C(=O)N2CCCCC2)N(C)C(=O)[C@H](C2CCCC2)N(C)C(=O)C2(CCCC2)NC(=O)[C@@H]2CCCN2C(=O)[C@H](CCc2ccc(C(F)(F)F)c(F)c2)NC(=O)CN(C)C(=O)[C@H](Cc2ccc(C)cc2)N(C)C(=O)[C@@H]2CCN2C(=O)[C@H](C)N(C)C1=O [Compound 1008] ([NMeL]I[NMeA][Aze][NMePhe(4-Me)][Sar][hPhe(3-F,4-CF3)]P[Ac5c][NMeGly(cPent)][NMeD]-Piperidide; lactam N-11) | 0.76 nM |
| CC[C@H](C)[C@@H]1NC(=O)[C@H](CC(C)C)N(C)C(=O)C[C@@H](C(=O)N(C)C)N(C)C(=O)[C@H](C2CCCC2)N(C)C(=O)C2(CCCC2)NC(=O)CN(CCOCCNC)C(=O)[C@H](CCc2ccc(C(F)(F)F)c(Cl)c2)NC(=O)CN(C)C(=O)[C@H](CC2CCCCC2)N(C)C(=O)[C@@H]2CCN2C(=O)[C@H](C)N(C)C1=O [Compound 2183, (3S,6S,9S,13S,16S,25S,31S,34S)-25-[2-[3-chloro-4-(trifluoromethyl)phenyl]ethyl]-31-(cyclohexylmethyl)-16-cyclopentyl-9-isobutyl-N,N,3,4,10,14,17,29,32-nonamethyl-23-[2-[2-(methylamino)ethoxy]ethyl]-6-[(1S)-1-methylpropyl]-2,5,8,11,15,18,21,24,27,30,33-undecaoxo-spiro[1,4,7,10,14,17,20,23,26,29,32-undecazabicyclo[32.2.0]hexatriacontane-19,1′-cyclopentane]-13-carboxamide] ([NMeL]I[NMeA][Aze][NMeCha][Sar][hPhe(3-Cl-4-CF3)][X58][Ac5c][NMeGly(cPent)][NMeD]-NMe2; lactam N-11) | 1.9 nM |
